Assay [1] addresses Ubiquitin carboxyl-terminal hydrolase 12 (Homo sapiens) (UniProt O75317). Nature of the assay: Inhibition of USP12 (unknown origin) at 10 uM relative to control.
The target in assay [2] is Ubiquitin carboxyl-terminal hydrolase 46 (Homo sapiens) (UniProt P62068). Nature of the assay: Inhibition of USP46 (unknown origin) at 10 uM relative to control.
The species entered for a further assay is Homo sapiens. Nature of the assay: Thermal stabilization of human His6-smt3 fused USP7 catalytic domain (208 to 560 residues) expressed in Escherichia coli assessed as increase in melting temperature at 50 uM by SYPRO orange dye based thermal shift assay.
The target in assay [3] is Ubiquitin carboxyl-terminal hydrolase 11 (Homo sapiens) (UniProt P51784). Put plainly: Inhibition of USP11 (unknown origin).
Ubiquitin carboxyl-terminal hydrolase 11 (Homo sapiens), sequence (P51784 whole entry): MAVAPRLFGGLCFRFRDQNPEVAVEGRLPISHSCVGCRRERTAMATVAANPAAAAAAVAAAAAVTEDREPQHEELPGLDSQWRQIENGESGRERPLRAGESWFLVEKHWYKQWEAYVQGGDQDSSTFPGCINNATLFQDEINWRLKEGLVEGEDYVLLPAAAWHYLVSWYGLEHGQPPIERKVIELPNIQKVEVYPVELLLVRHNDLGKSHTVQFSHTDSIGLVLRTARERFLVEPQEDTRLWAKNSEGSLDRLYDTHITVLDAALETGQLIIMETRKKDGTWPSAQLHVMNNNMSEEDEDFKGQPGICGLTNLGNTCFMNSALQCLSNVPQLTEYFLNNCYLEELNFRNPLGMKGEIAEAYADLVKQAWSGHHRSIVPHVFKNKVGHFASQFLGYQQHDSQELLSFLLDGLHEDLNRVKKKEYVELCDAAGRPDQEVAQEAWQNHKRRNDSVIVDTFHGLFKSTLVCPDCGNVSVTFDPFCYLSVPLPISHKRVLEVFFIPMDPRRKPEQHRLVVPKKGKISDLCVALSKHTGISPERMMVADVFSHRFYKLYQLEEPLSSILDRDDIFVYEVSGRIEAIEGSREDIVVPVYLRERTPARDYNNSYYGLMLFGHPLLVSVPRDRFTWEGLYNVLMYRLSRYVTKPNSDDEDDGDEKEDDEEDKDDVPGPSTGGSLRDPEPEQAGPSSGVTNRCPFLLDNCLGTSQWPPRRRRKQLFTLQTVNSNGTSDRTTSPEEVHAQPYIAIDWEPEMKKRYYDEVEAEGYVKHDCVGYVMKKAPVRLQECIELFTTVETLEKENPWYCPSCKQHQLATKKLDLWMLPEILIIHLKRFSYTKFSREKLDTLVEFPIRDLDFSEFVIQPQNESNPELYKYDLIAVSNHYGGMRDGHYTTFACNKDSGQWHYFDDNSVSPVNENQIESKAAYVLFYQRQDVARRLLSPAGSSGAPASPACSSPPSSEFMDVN
The target in assay [4] is T1, Ubiquitin carboxyl-terminal hydrolase 1 (Homo sapiens) (UniProt O94782).
T1 sequence (whole entry): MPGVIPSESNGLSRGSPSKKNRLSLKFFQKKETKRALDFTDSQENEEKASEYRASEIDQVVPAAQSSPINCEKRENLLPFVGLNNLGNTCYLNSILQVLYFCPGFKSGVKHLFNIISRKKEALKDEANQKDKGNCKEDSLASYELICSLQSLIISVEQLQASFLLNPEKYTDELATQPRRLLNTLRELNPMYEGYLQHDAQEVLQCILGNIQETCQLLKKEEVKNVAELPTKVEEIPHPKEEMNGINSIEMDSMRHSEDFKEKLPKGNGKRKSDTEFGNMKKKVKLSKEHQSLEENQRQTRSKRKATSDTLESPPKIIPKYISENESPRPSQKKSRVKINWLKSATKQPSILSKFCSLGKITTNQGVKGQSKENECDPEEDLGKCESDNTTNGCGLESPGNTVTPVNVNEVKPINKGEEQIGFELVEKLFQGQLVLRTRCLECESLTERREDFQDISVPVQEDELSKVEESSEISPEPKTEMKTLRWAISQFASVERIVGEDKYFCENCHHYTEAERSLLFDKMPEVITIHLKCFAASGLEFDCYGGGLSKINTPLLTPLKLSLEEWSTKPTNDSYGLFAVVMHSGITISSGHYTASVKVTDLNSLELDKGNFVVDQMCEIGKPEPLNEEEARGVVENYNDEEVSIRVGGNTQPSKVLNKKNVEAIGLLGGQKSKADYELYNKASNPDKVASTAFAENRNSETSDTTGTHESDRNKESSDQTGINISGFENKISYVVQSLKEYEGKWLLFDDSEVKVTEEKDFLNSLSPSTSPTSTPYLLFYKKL
The following applies: dose 50.0 µM.
Description: Thermal stabilization of human USP1 assessed as increase in melting temperature at 50 uM by SYPRO Orange dye based thermal shift assay

Assay [5] can be described thus: Selectivity index, ratio of inhibition of USP12 (unknown origin) to IC50 for human USP1.
Assay [6] addresses T1, Ubiquitin carboxyl-terminal hydrolase 1 (Homo sapiens). Put plainly: Inhibition of human USP1 using FANC1-FANCD2Ub-ds DNA as substrate assessed as reduction in FANCD2 deubiquitination at 25 uM measured after 0 to 20 mins by instant-blue coomassie staining based SDS-PAGE analysis. The following applies: time 0-20 min.
In assay [7] the test system is Ubiquitin carboxyl-terminal hydrolase 1 (Homo sapiens), O94782 [UNDEFINED MUTATION]. Nature of the assay: Binding affinity to human His6 tagged/TEV fused USP1 229 to 408/608 to 737 residues disordered inserts deletion mutant expressed in Sf21 insect cells assessed as displacement of N85 by measuring alpha-chymotrypsin mediated protein truncation at F80 or R74 at 25 uM measured at 10 to 20 mins by instant-blue coomassie staining based SDS-PAGE analysis. The following applies: time 10-20 min.

For assay [8] the test system is unchanged. Nature of the assay: Binding affinity to human His6 tagged/TEV fused USP1 229 to 408/608 to 737 residues disordered inserts deletion mutant expressed in Sf21 insect cells assessed as displacement of N85 by measuring trypsin mediated protein truncation at F80 or R74 at 25 uM measured at 10 to 20 mins by instant-blue coomassie staining based SDS-PAGE analysis. Particulars: time 10-20 min.

In assay [9] the target is Ubiquitin carboxyl-terminal hydrolase 46 (Homo sapiens) (UniProt P62068). Put plainly: Inhibition of human USP46 at 100 uM by ubiquitin-rhodamine assay relative to control.
The target of assay [10] is Ubiquitin carboxyl-terminal hydrolase 12 (Homo sapiens) (UniProt O75317). Nature of the assay: Inhibition of human USP12 at 100 uM by ubiquitin-rhodamine assay relative to control.
Ubiquitin carboxyl-terminal hydrolase 12 (Homo sapiens), sequence (O75317 whole entry): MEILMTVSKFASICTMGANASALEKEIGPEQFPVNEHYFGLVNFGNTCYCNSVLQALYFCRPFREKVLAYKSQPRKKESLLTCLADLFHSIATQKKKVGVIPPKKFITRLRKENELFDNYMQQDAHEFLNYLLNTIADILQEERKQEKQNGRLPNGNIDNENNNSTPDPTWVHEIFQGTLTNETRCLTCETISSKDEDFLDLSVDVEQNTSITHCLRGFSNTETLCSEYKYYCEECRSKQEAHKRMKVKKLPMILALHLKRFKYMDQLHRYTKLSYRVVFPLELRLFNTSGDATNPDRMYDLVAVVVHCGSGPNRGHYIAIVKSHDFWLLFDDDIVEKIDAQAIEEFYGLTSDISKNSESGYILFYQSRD

Active and inactive are the calls of the source. The calls are words filed in the database; no cut-off is given here.

Ubiquitin carboxyl-terminal hydrolase 46 (Homo sapiens), sequence (P62068 whole entry, the tested form may be a part): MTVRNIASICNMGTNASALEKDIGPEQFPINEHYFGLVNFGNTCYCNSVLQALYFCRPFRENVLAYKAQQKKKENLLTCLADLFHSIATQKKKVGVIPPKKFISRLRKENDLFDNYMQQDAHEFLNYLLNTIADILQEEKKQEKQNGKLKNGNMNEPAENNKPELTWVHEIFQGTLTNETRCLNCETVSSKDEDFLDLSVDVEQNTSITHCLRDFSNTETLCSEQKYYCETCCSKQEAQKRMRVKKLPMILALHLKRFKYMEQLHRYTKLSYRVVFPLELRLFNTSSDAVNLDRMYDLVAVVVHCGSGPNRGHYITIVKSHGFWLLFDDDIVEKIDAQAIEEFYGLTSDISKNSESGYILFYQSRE

Regarding `CC(C)c1ccccc1-c1ncc2[nH]c(=O)n(Cc3ccc(-c4nc(C(F)(F)F)cn4C)cc3)c2n1`, the inhibition in [1] and in assay [2] was 50% throughout.

For the molecule `Cc1cnc(-c2ccccc2C(C)C)nc1NCc1ccc(-n2ccnn2)cc1`, the result in the assay listed under Homo sapiens was inactive. The inhibition result in assay [3] and in [6] was “inactive” in each case. Further, the ΔTm (in general, the change in melting temperature against a reference sample) in assay [4] came out at 11 °C. Further, the Selectivity Index in assay [5] was 100.

As for `O=C1c2ccccc2C(=O)c2oc(-c3ccccc3)nc21`, the result in assay [7] and in [8] was inactive.

With `COc1ncnc(C2CC2)c1-c1ncc2cnn(Cc3ccc(-c4nc(C(F)(F)F)cn4C(C)C)cc3)c2n1`, the outcome in the assay filed under Homo sapiens was inactive. Moreover, the inhibition (usually how much of the control response was suppressed) in assay [3] was “inactive”. The inhibition in [9] and in [10] was less than 50% throughout.

These data come from ChEMBL document CHEMBL5584350, “Structural and Biochemical Insights into the Mechanism of Action of the Clinical USP1 Inhibitor, KSQ-4279” (J Med Chem, 2024).
